Reference: PubChem BioAssay AID1963841 (Molecular Pharmacology Branch, DTP, NCI, 2024)

Test system: 439559-082-T-J2-PDC spheroid viability
Experiment: Anticancer human tumor 439559-082-T-J2-PDC patient-derived colon adenocarcinoma cell line growth inhibition [POLQ]
Details: spheroids with HUVEC and MSC; for IC50: curve of first compound; for viability, T/C: stronger effect = lower value
Summary of the method: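 Complex spheroid viability model combining PDC tumour cells with endothelial (HUVEC) and MSC stromal cells. Novobiocin, ART-558 or RP6685 were tested singly and in combination with standard and investigational anticancer drugs. Each was titrated in half-log steps from near clinical Cmax, or from 10 microM where Cmax was unknown.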

[1] = second compound 0.0316 µM, first compound 0.0316 µM
[2] = second compound 0.0316 µM, first compound 0.1 µM
[3] = second compound 0.0316 µM, first compound 0.316 µM
[4] = second compound 0.0316 µM, first compound 1 µM
[5] = second compound 0.0316 µM, first compound 3.16 µM
[6] = second compound 0.0316 µM, first compound 10 µM
[7] = second compound 0.1 µM, first compound 0.0316 µM
[8] = second compound 0.1 µM, first compound 0.1 µM
[9] = second compound 0.1 µM, first compound 0.316 µM
[10] = second compound 0.1 µM, first compound 1 µM
[11] = second compound 0.1 µM, first compound 3.16 µM
[12] = second compound 0.1 µM, first compound 10 µM
[13] = second compound 0.316 µM, first compound 0.0316 µM
[14] = second compound 0.316 µM, first compound 0.1 µM
[15] = second compound 0.316 µM, first compound 0.316 µM
[16] = second compound 0.316 µM, first compound 1 µM
[17] = second compound 0.316 µM, first compound 3.16 µM
[18] = second compound 0.316 µM, first compound 10 µM
[19] = second compound 1 µM, first compound 0.0316 µM
[20] = second compound 1 µM, first compound 0.1 µM
[21] = second compound 1 µM, first compound 0.316 µM
[22] = second compound 1 µM, first compound 1 µM
[23] = second compound 1 µM, first compound 3.16 µM
[24] = second compound 1 µM, first compound 10 µM
[25] = second compound 3.16 µM, first compound 0.0316 µM
[26] = second compound 3.16 µM, first compound 0.1 µM
[27] = second compound 3.16 µM, first compound 0.316 µM
[28] = second compound 3.16 µM, first compound 1 µM
[29] = second compound 3.16 µM, first compound 3.16 µM
[30] = second compound 3.16 µM, first compound 10 µM
[31] = second compound 10 µM, first compound 0.0316 µM
[32] = second compound 10 µM, first compound 0.1 µM
[33] = second compound 10 µM, first compound 0.316 µM
[34] = second compound 10 µM, first compound 1 µM
[35] = second compound 10 µM, first compound 3.16 µM
[36] = second compound 10 µM, first compound 10 µM
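Also: spheroids exposed to compounds for seven days before readout.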
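For viability, T/C in this document: 100% = DMSO vehicle control viability.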

O=C(Nc1ccc(O)c(NS(=O)(=O)c2ccc(F)cc2)c1)c1ccc(-c2ccccc2)cc1 + Cc1cccc(N(C)C(=O)C2C(O)CCN2c2nc(C)cc(C(F)(F)F)c2C#N)c1
IC50 (second compound 0.0316 µM): > 10 µM | IC50 (second compound 0.1 µM): > 10 µM | IC50 (second compound 0.316 µM): > 10 µM | IC50 (second compound 1 µM): > 10 µM | IC50 (second compound 3.16 µM): > 10 µM | IC50 (second compound 10 µM): > 10 µM | viability, T/C [1]: 92% | viability, T/C [2]: 119% | viability, T/C [3]: 86.7% | viability, T/C [4]: 97.3% | viability, T/C [5]: 103% | viability, T/C [6]: 102% | viability, T/C [7]: 101% | viability, T/C [8]: 106% | viability, T/C [9]: 100% | viability, T/C [10]: 98.6% | viability, T/C [11]: 107% | viability, T/C [12]: 99.8% | viability, T/C [13]: 101% | viability, T/C [14]: 108% | viability, T/C [15]: 92.4% | viability, T/C [16]: 96.7% | viability, T/C [17]: 105% | viability, T/C [18]: 118% | viability, T/C [19]: 96.6% | viability, T/C [20]: 93.6% | viability, T/C [21]: 98.4% | viability, T/C [22]: 97.7% | viability, T/C [23]: 101% | viability, T/C [24]: 115% | viability, T/C [25]: 98.1% | viability, T/C [26]: 93.7% | viability, T/C [27]: 85.7% | viability, T/C [28]: 104% | viability, T/C [29]: 109% | viability, T/C [30]: 99% | viability, T/C [31]: 97.8% | viability, T/C [32]: 84.6% | viability, T/C [33]: 107% | viability, T/C [34]: 86% | viability, T/C [35]: 104% | viability, T/C [36]: 109%

CCCS(=O)(=O)Nc1ccc(F)c(C(=O)c2c[nH]c3ncc(-c4ccc(Cl)cc4)cc23)c1F + COC1C(OC(N)=O)C(O)C(Oc2ccc3c(O)c(NC(=O)c4ccc(O)c(CC=C(C)C)c4)c(=O)oc3c2C)OC1(C)C
IC50 (second compound 0.0316 µM): > 10 µM | IC50 (second compound 0.1 µM): > 10 µM | IC50 (second compound 0.316 µM): > 10 µM | IC50 (second compound 1 µM): > 10 µM | IC50 (second compound 3.16 µM): > 10 µM | IC50 (second compound 10 µM): > 10 µM | viability, T/C [1]: 103% | viability, T/C [2]: 109% | viability, T/C [3]: 96.6% | viability, T/C [4]: 95.8% | viability, T/C [5]: 99.7% | viability, T/C [6]: 70% | viability, T/C [7]: 108% | viability, T/C [8]: 107% | viability, T/C [9]: 99.9% | viability, T/C [10]: 102% | viability, T/C [11]: 100% | viability, T/C [12]: 67.9% | viability, T/C [13]: 104% | viability, T/C [14]: 106% | viability, T/C [15]: 101% | viability, T/C [16]: 92.9% | viability, T/C [17]: 94.2% | viability, T/C [18]: 65.8% | viability, T/C [19]: 99.2% | viability, T/C [20]: 104% | viability, T/C [21]: 102% | viability, T/C [22]: 103% | viability, T/C [23]: 105% | viability, T/C [24]: 68.4% | viability, T/C [25]: 93.7% | viability, T/C [26]: 103% | viability, T/C [27]: 94.3% | viability, T/C [28]: 95.4% | viability, T/C [29]: 93.1% | viability, T/C [30]: 67.9% | viability, T/C [31]: 103% | viability, T/C [32]: 95.2% | viability, T/C [33]: 100% | viability, T/C [34]: 99.2% | viability, T/C [35]: 98.3% | viability, T/C [36]: 71.4%
